According to ChEMBL document CHEMBL2413072, “Synthesis and in vitro anticancer studies of novel C-2 arylidene congeners of lantadenes” (2013):

Legend:
Format in all cases: functional
MOLT-4 = test: Growth inhibition of human MOLT4 cells by sulforhodamine B assay
HT-29 = test: Growth inhibition of human HT-29 cells assessed as cell growth at 10^-8 M by sulforhodamine B assay; settings: read-out: Activity
CCRF-CEM = test: Growth inhibition of human CCRF-CEM cells assessed as cell growth at 10^-8 M by sulforhodamine B assay; settings: read-out: Activity
T47D = test: Growth inhibition of human T47D cells by sulforhodamine B assay
MCF7 [1] = test: Growth inhibition of human MCF7 cells by sulforhodamine B assay
UO-31 [2] = test: Growth inhibition of human UO31 cells by sulforhodamine B assay
OVCAR-4 [3] = test: Growth inhibition of human OVCAR4 cells by sulforhodamine B assay
MDA-MB-435 = test: Growth inhibition of human MDA-MB-435 cells by sulforhodamine B assay
SF-295 = test: Growth inhibition of human SF295 cells by sulforhodamine B assay
BT-549 = test: Growth inhibition of human BT549 cells assessed as cell growth at 10^-4 M by sulforhodamine B assay; settings: read-out: Activity
MCF7 [4] = test: Growth inhibition of human MCF7 cells assessed as cell growth at 10^-4 M by sulforhodamine B assay; settings: read-out: Activity
786-0 = test: Growth inhibition of human 786-0 cells assessed as cell growth at 10^-4 M by sulforhodamine B assay; settings: read-out: Activity
[5] = Growth inhibition of human NCI-ADR-RES cells assessed as cell growth at 10^-4 M by sulforhodamine B assay; settings: read-out: Activity
OVCAR-4 [6] = test: Growth inhibition of human OVCAR4 cells assessed as cell growth at 10^-4 M by sulforhodamine B assay; settings: read-out: Activity
SK-MEL-5 [7] = test: Growth inhibition of human SK-MEL-5 cells assessed as cell growth at 10^-4 M by sulforhodamine B assay; settings: read-out: Activity
HCT-15 = test: Growth inhibition of human HCT15 cells assessed as cell growth at 10^-4 M by sulforhodamine B assay; settings: read-out: Activity
COLO 205 = test: Growth inhibition of human COLO205 cells assessed as cell growth at 10^-4 M by sulforhodamine B assay; settings: read-out: Activity
NCI-H322M = test: Growth inhibition of human NCI-H322M cells assessed as cell growth at 10^-4 M by sulforhodamine B assay; settings: read-out: Activity
HOP-92 [8] = test: Growth inhibition of human HOP92 cells assessed as cell growth at 10^-4 M by sulforhodamine B assay; settings: read-out: Activity
MDA-MB-468 = test: Growth inhibition of human MDA-MB-468 cells assessed as cell growth at 10^-6 M by sulforhodamine B assay; settings: read-out: Activity
DU-145 = test: Growth inhibition of human DU145 cells assessed as cell growth at 10^-6 M by sulforhodamine B assay; settings: read-out: Activity
[9] = Growth inhibition of human NCI-ADR-RES cells assessed as cell growth at 10^-6 M by sulforhodamine B assay; settings: read-out: Activity
SK-MEL-5 [10] = test: Growth inhibition of human SK-MEL-5 cells assessed as cell growth at 10^-6 M by sulforhodamine B assay; settings: read-out: Activity
[11] = Growth inhibition of human HCC2998 cells assessed as cell growth at 10^-6 M by sulforhodamine B assay; settings: HCC 2998, read-out: Activity
HOP-92 [12] = test: Growth inhibition of human HOP92 cells assessed as cell growth at 10^-6 M by sulforhodamine B assay; settings: read-out: Activity
A549 = test: Growth inhibition of human A549/ATCC cells assessed as cell growth at 10^-6 M by sulforhodamine B assay; settings: read-out: Activity
HL-60(TB) = test: Growth inhibition of human HL-60(TB) cells assessed as cell growth at 10^-6 M by sulforhodamine B assay; settings: read-out: Activity
MDA-MB-231 = test: Growth inhibition of human MDA-MB-231 cells assessed as cell growth at 10^-7 M by sulforhodamine B assay; settings: read-out: Activity
MCF7 [13] = test: Growth inhibition of human MCF7 cells assessed as cell growth at 10^-7 M by sulforhodamine B assay; settings: read-out: Activity
UO-31 [14] = test: Growth inhibition of human UO31 cells assessed as cell growth at 10^-7 M by sulforhodamine B assay; settings: read-out: Activity
SN12C = test: Growth inhibition of human SN12C cells assessed as cell growth at 10^-7 M by sulforhodamine B assay; settings: read-out: Activity
OVCAR-4 [15] = test: Growth inhibition of human OVCAR4 cells assessed as cell growth at 10^-7 M by sulforhodamine B assay; settings: read-out: Activity
IGROV-1 = test: Growth inhibition of human IGROV1 cells assessed as cell growth at 10^-7 M by sulforhodamine B assay; settings: read-out: Activity
SW-620 = test: Growth inhibition of human SW620 cells assessed as cell growth at 10^-7 M by sulforhodamine B assay; settings: read-out: Activity
KM12 = test: Growth inhibition of human KM12 cells assessed as cell growth at 10^-7 M by sulforhodamine B assay; settings: read-out: Activity
NCI-H226 = test: Growth inhibition of human NCI-H226 cells assessed as cell growth at 10^-7 M by sulforhodamine B assay; settings: read-out: Activity
HOP-62 = test: Growth inhibition of human HOP62 cells assessed as cell growth at 10^-7 M by sulforhodamine B assay; settings: read-out: Activity
K562 = test: Growth inhibition of human K562 cells assessed as cell growth at 10^-7 M by sulforhodamine B assay; settings: read-out: Activity
ACHN = test: Growth inhibition of human ACHN cells assessed as cell growth at 10^-8 M by sulforhodamine B assay; settings: read-out: Activity
CAKI-1 = test: Growth inhibition of human CAKI-1 cells assessed as cell growth at 10^-8 M by sulforhodamine B assay; settings: read-out: Activity
[16] = read-out: LC50 (the source's name)
[17] = read-out: pLC50 (the source's name) (converted)

For CC(C)=CC(=O)O[C@@H]1CC(C)(C)C[C@H]2C3=CC[C@@H]4[C@@]5(C)CC[C@H](O)C(C)(C)[C@@H]5CC[C@@]4(C)[C@]3(C)CC[C@@]12C(=O)O [Reduced Lantadene B], the GI50 (MOLT-4; read-out: GI50) was 3.02 µM, the CC50 (MOLT-4; [16]) was > 100 µM and the TGI (MOLT-4; read-out: TGI) was 20.6 µM. The GI50 (MOLT-4; read-out: pGI50 (converted)) was 3.02 µM, the CC50 (MOLT-4; [17]) was > 100 µM and the TGI (MOLT-4; read-out: pTGI (converted)) was 20.4 µM. For the same molecule, the growth at 0.01 µM (HT-29) was 91%, the growth at 0.01 µM (CCRF-CEM) was 103% and the GI50 (T47D; read-out: GI50) was 16.7 µM. For the same molecule, the CC50 (T47D; [16]) was > 100 µM, the TGI (T47D; read-out: TGI) was 63.4 µM and the GI50 (T47D; read-out: pGI50 (converted)) was 16.6 µM. The CC50 (T47D; [17]) was > 100 µM, the TGI (T47D; read-out: pTGI (converted)) was 63.1 µM and the GI50 (MCF7 [1]; read-out: GI50) was 6.18 µM. For the same molecule, the CC50 (MCF7 [1]; [16]) was > 100 µM, the TGI (MCF7 [1]; read-out: TGI) was 30.3 µM and the GI50 (MCF7 [1]; read-out: pGI50 (converted)) was 6.17 µM. For the same molecule, the CC50 (MCF7 [1]; [17]) was > 100 µM, the TGI (MCF7 [1]; read-out: pTGI (converted)) was 30.2 µM and the GI50 (UO-31 [2]; read-out: GI50) was 3.69 µM. For the same molecule, the CC50 (UO-31 [2]; [16]) was 45.4 µM, the TGI (UO-31 [2]; read-out: TGI) was 15.5 µM and the GI50 (UO-31 [2]; read-out: pGI50 (converted)) was 3.72 µM. It also gave a CC50 (UO-31 [2]; [17]) of 45.7 µM, a TGI (UO-31 [2]; read-out: pTGI (converted)) of 15.5 µM and a GI50 (OVCAR-4 [3]; read-out: GI50) of 8.59 µM. For the same molecule, the CC50 (OVCAR-4 [3]; [16]) was > 100 µM, the TGI (OVCAR-4 [3]; read-out: TGI) was 35.6 µM and the GI50 (OVCAR-4 [3]; read-out: pGI50 (converted)) was 8.51 µM. For the same molecule, the CC50 (OVCAR-4 [3]; [17]) was > 100 µM, the TGI (OVCAR-4 [3]; read-out: pTGI (converted)) was 35.5 µM and the GI50 (MDA-MB-435; read-out: GI50) was 11.9 µM. The CC50 (MDA-MB-435; [16]) was > 100 µM, the TGI (MDA-MB-435; read-out: TGI) was 48.4 µM and the GI50 (MDA-MB-435; read-out: pGI50 (converted)) was 12 µM. The CC50 (MDA-MB-435; [17]) was > 100 µM, the TGI (MDA-MB-435; read-out: pTGI (converted)) was 47.9 µM and the GI50 (SF-295; read-out: GI50) was 1.45 µM. It also gave a CC50 (SF-295; [16]) of 52.8 µM, a TGI (SF-295; read-out: TGI) of 11.1 µM and a GI50 (SF-295; read-out: pGI50 (converted)) of 1.45 µM. For the same molecule, the CC50 (SF-295; [17]) was 52.5 µM, the TGI (SF-295; read-out: pTGI (converted)) was 11.2 µM and the growth at 100 µM (BT-549) was -65%. The growth at 100 µM (MCF7 [4]) was -43%, the growth at 100 µM (786-0) was -73% and the growth at 100 µM [5] was -30%. For the same molecule, the growth at 100 µM (OVCAR-4 [6]) was -39%, the growth at 100 µM (SK-MEL-5 [7]) was -64% and the growth at 100 µM (HCT-15) was -44%. The growth at 100 µM (COLO 205) was -52%, the growth at 100 µM (NCI-H322M) was -70% and the growth at 100 µM (HOP-92 [8]) was -81%. The growth at 1 µM (MDA-MB-468) was 77%, the growth at 1 µM (DU-145) was 94% and the growth at 1 µM [9] was 90%. The growth at 1 µM (SK-MEL-5 [10]) was 77%, the growth at 1 µM [11] was 96% and the growth at 1 µM (HOP-92 [12]) was 70%. The growth at 1 µM (A549) was 34%, the growth at 1 µM (HL-60(TB)) was 96% and the growth at 0.1 µM (MDA-MB-231) was 97%. The growth at 0.1 µM (MCF7 [13]) was 98%, the growth at 0.1 µM (UO-31 [14]) was 95% and the growth at 0.1 µM (SN12C) was 96%. The growth at 0.1 µM (OVCAR-4 [15]) was 96%, the growth at 0.1 µM (IGROV-1) was 106% and the growth at 0.1 µM (SW-620) was 95%. It also gave a growth at 0.1 µM (KM12) of 79%, a growth at 0.1 µM (NCI-H226) of 88% and a growth at 0.1 µM (HOP-62) of 87%. The growth at 0.1 µM (K562) was 91%, the growth at 0.01 µM (ACHN) was 103% and the growth at 0.01 µM (CAKI-1) was 97%.
